Experimental data as given in patent publication US20080247962A1, “Pharmaceutical Compositions Comprising Higher Primary Aliphatic Alcohols and Hmg Coa Reductase Inhibitor and Process of Preparation Thereof” (PANACEA BIOTEC LTD., priority 2004, published 2008).

Test system: Casein-Starch-Induced Hypercholesterolemia in Rabbits
Test: Casein-starch-induced hypercholesterolemia in rabbits (serum lipid profile)
Format: in vivo
Set-up: key to LDL-C level: serum LDL-C in mg/dL, mean±S.E.M
Settings: for serum total cholesterol level / LDL-C level: mean±S.E.M.; for LDL-C level: in mg/dL (unit assumed)
Protocol: Casein-Starch-Induced Hypercholesterolemia in Rabbits
The observed unexpected synergistic lipid lowering effect of combination of Extract-A and atorvastatin is evidenced by the test conducted in rabbits. Rabbits of either sex were procured from Central Animal House facility; Panacea Biotec Ltd., India. Animals weighing 1.5-2.0 Kg at the time of testing were used. All animals were dosed sequentially by the oral route with Extract-A and/or atorvastatin suspended in 0.5% of carboxymethyl cellulose (CMC). A dosing volume of 2 ml/kg was used for each sequential suspension.
The fasting serum lipid profile (TC, TGs, LDL-C, HDL-C) was estimated before initiation of the experiment. […] Hypercholesterolemia was induced by feeding rabbits with wheat casein-starch diet (g/kg) containing wheat flour 333, cellulose 300, casein 270, water 20, maize oil 10, and mineral mixture (Kroon et al., 1982) for 60 days. Feed consumption was restricted to 100 g/day per animal. The cholesterol level was estimated every 15 days. After 60 days animals with total cholesterol level >150 mg/dl were randomized to treatment (n=6/group). Thereafter, various doses of Extract-A and/or atorvastatin were administered for another 60 days during which animals were fed with casein-starch diet. Blood samples were collected from fasted rabbits and analyzed for any alteration in serum lipid profile after 60 days of test compound(s) administration.
All the data are expressed as mean±S.E.M. (Standard Error of Mean). Student t-test was-used to compare the lipid parameters between animals fed with standard and hypercholesterolemic diet. The difference between various drug treated groups was analyzed by ANOVA followed by Dunnett's test. A value of P<0.05 was considered as statistically significant.

[1] = atorvastatin 2.5 mg/kg p.o., day 0, pre-dose
[2] = atorvastatin 2.5 mg/kg p.o., day 15, pre-dose
[3] = atorvastatin 2.5 mg/kg p.o., day 30, pre-dose
[4] = atorvastatin 2.5 mg/kg p.o., day 60, start of dosing
[5] = atorvastatin 2.5 mg/kg p.o., day 75 (dosing from day 60)
[6] = atorvastatin 2.5 mg/kg p.o., day 90 (dosing from day 60)
[7] = atorvastatin 2.5 mg/kg p.o., day 105 (dosing from day 60)
[8] = atorvastatin 2.5 mg/kg p.o., day 120 (dosing from day 60)
[9] = atorvastatin 5 mg/kg p.o., day 0, pre-dose
[10] = atorvastatin 5 mg/kg p.o., day 15, pre-dose
[11] = atorvastatin 5 mg/kg p.o., day 30, pre-dose
[12] = atorvastatin 5 mg/kg p.o., day 60, start of dosing
[13] = atorvastatin 5 mg/kg p.o., day 75 (dosing from day 60)
[14] = atorvastatin 5 mg/kg p.o., day 90 (dosing from day 60)
[15] = atorvastatin 5 mg/kg p.o., day 105 (dosing from day 60)
[16] = atorvastatin 5 mg/kg p.o., day 120 (dosing from day 60)
[17] = single agents: Extract-A 100 and 200 mg/kg p.o., atorvastatin 2.5 and 5 mg/kg p.o.

Compound: CC(C)c1c(C(=O)Nc2ccccc2)c(-c2ccccc2)c(-c2ccc(F)cc2)n1CC[C@@H](O)C[C@@H](O)CC(=O)O [At, atorvastatin]
- serum total cholesterol level [1]: 56.83 ± 4.84 mg/dL
- LDL-C level [1]: 21.4 ± 8.04
- serum total cholesterol level [2]: 96.00 ± 2.08 mg/dL
- LDL-C level [2]: 61.03 ± 1.87
- serum total cholesterol level [3]: 144.83 ± 6.6 mg/dL
- LDL-C level [3]: 106.6 ± 5.85
- serum total cholesterol level [4]: 204.66 ± 6.58 mg/dL
- LDL-C level [4]: 166.07 ± 4.97
- serum total cholesterol level [5]: 202.5 ± 15.15 mg/dL
- LDL-C level [5]: 165.53 ± 14.81
- serum total cholesterol level [6]: 205.83 ± 13.31 mg/dL
- LDL-C level [6]: 166.47 ± 13.66
- serum total cholesterol level [7]: 201.33 ± 11.49 mg/dL
- LDL-C level [7]: 159.3 ± 12.53
- serum total cholesterol level [8]: 201.16 ± 10.4 mg/dL
- LDL-C level [8]: 158.00 ± 12.22
- serum total cholesterol level [9]: 68.50 ± 5.99 mg/dL
- LDL-C level [9]: 30.33 ± 6.44
- serum total cholesterol level [10]: 101.16 ± 1.88 mg/dL
- LDL-C level [10]: 61.83 ± 1.77
- serum total cholesterol level [11]: 142.16 ± 10.37 mg/dL
- LDL-C level [11]: 104.17 ± 11.76
- serum total cholesterol level [12]: 226.67 ± 9.74 mg/dL
- LDL-C level [12]: 188.67 ± 10.00
- serum total cholesterol level [13]: 213.16 ± 5.69 mg/dL
- LDL-C level [13]: 175.07 ± 5.06
- serum total cholesterol level [14]: 201.83 ± 5.81 mg/dL
- LDL-C level [14]: 161.3 ± 6.04
- serum total cholesterol level [15]: 198.17 ± 6.65 mg/dL
- LDL-C level [15]: 155.17 ± 6.87
- serum total cholesterol level [16]: 195.50 ± 5.31 mg/dL
- LDL-C level [16]: 149.1 ± 4.72
- LDL-C in comparison to hypercholesterolemic control rabbits [17]: reversed
- TC in comparison to hypercholesterolemic control rabbits [17]: reversed
